Data from PubChem BioAssay (NCI).
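GI50: concentration for 50% inhibition of growth. TGI: total growth inhibition.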

Columns and labels:
Assay in all cases: DTP human tumour cell line panel, 384-well format
ACHN renal = system: ACHN renal
HCC-2998 colon = system: HCC-2998 colon
HCT-116 colon = system: HCT-116 colon
LOX IMVI melanoma = system: LOX IMVI melanoma
MCF7 breast = system: MCF7 breast
MDA-MB-231 breast = system: MDA-MB-231 breast
MOLT-4 leukemia = system: MOLT-4 leukemia
OVCAR-5 ovarian = system: OVCAR-5 ovarian
SF-295 CNS = system: SF-295 CNS
SK-MEL-28 melanoma = system: SK-MEL-28 melanoma
SK-MEL-5 melanoma = system: SK-MEL-5 melanoma
SR leukemia = system: SR leukemia
SW-620 colon = system: SW-620 colon

How did the GI50 (ACHN renal) turn out when `C=CCN(/C=C1\C(=O)O[C@H](COC)[C@@]2(C)C1=C(O)C(=O)C1=C2[C@H](OC(C)=O)C[C@]2(C)C(=O)CC[C@@H]12)CC=C` was run?
Its GI50 is 4.71 µM.

And the TGI (ACHN renal)?
Its TGI is over 100 µM.

And the GI50 (HCC-2998 colon)?
Its GI50 is 0.671 µM.

What about the TGI (HCC-2998 colon) of the same compound?
The TGI was 6.09 µM.

And the GI50 (HCT-116 colon)?
Its GI50 is 4.61 µM.

What about the TGI (HCT-116 colon) of the same compound?
Its TGI is 31.4 µM.

What about the GI50 (LOX IMVI melanoma) of the same compound?
The GI50 was 5.49 µM.

And the TGI (LOX IMVI melanoma)?
Its TGI is 39.1 µM.

And the GI50 (MCF7 breast)?
Its GI50 is 0.441 µM.

And the TGI (MCF7 breast)?
Its TGI is 19.4 µM.

And the GI50 (MDA-MB-231 breast)?
The GI50 was 3.68 µM.

And the TGI (MDA-MB-231 breast)?
Its TGI is over 100 µM.

What about the GI50 (MOLT-4 leukemia) of the same compound?
The GI50 was 0.333 µM.

What about the TGI (MOLT-4 leukemia) of the same compound?
The TGI was 2.02 µM.

And the GI50 (OVCAR-5 ovarian)?
Its GI50 is 3.62 µM.

What about the TGI (OVCAR-5 ovarian) of the same compound?
The TGI was 42.9 µM.

And the GI50 (SF-295 CNS)?
The GI50 was 2.12 µM.

What about the TGI (SF-295 CNS) of the same compound?
Its TGI is 18.7 µM.

What about the GI50 (SK-MEL-28 melanoma) of the same compound?
The GI50 was 1.59 µM.

And the TGI (SK-MEL-28 melanoma)?
Its TGI is 19.7 µM.

What about the GI50 (SK-MEL-5 melanoma) of the same compound?
The GI50 was 2.96 µM.

And the TGI (SK-MEL-5 melanoma)?
The TGI was 14.7 µM.

What about the GI50 (SR leukemia) of the same compound?
Its GI50 is 1.22 µM.

And the TGI (SR leukemia)?
Its TGI is 2.51 µM.

And the GI50 (SW-620 colon)?
The GI50 was 7.45 µM.

And the TGI (SW-620 colon)?
The TGI was over 100 µM.
